Results: patent US4459404A, “Amides of retinoic acids with 5-amino tetrazole” (BASF Aktiengesellschaft, priority 1980, dated 1984)
Where two headings read alike, the source gives them in different places.

Key:
liver = conditions: use in therapy; cited from earlier work
[1] = test system: dorsal skin (erythema and scaling); parameters: species or system New Zealand white rabbit (male); conditions: rabbit, in vivo
Protocol: 4. Topical tolerance study of the test substances Six New Zealand white male rabbits were used in each study. Sites, each about 6 cm^2 in size, were shaved on the dorsal trunk of each test animal. The test substances were dissolved in a 70:30 volume/volume alcohol:propylene glycol mixture and 0.2 ml of the solution was applied topically from an automatic micropipette by gentle inunction to a pre-designated site twice daily, with an interval of six hours, for nine successive days. All sites were subjectively evaluated for erythema and scaling at the beginning of the test and before each morning application. A numerical grading scale of 0 to 3 was used (0=no reaction, 1=mild, 2=moderate, 3=severe).

[2] = test system: comedones induced by coal tar (rabbit ear model); assay: Comedolytic activity in a rabbit ear model; type: in vivo, albino rabbit; conditions: topical, two weeks, decrease in comedones vs control ear
Protocol: Comedo formation was induced by topical application (0.5 ml), once daily, of 5% coal tar in Polyan® (an ester of lanolin alcohol and linoleic acid, from Amerchol Corp., USA) to both ears of albino rabbits on 5 successive days per week, for two weeks. Following this, the test substance, in a 70:30 volume/volume alcohol:propylene glycol mixture, was applied topically, in an amount of 0.5 ml, to the inner surface of one ear of each rabbit once daily on 5 consecutive days per week, for two weeks. The contra-lateral ear of each rabbit served as an untreated control.
Following a subsequent treatment (~72 hours) with the test substance, the rabbits were sacrificed. A sample of skin, of about 6 cm^2, was removed from the pinna of each ear just external to the auditory canal and was divided into pieces of about 1 cm^2.
These pieces of skin were immersed in water at 60° C. for 2 minutes. The epidermis was carefully peeled off using the flat end of a spatula and fine forceps, and was placed on a microscope slide, with the dermal side facing upward. After overnight airdrying, the slide was examined under the stereomicroscope. Follicular extensions of horny material remain intact. Comedones show up as discrete, uniformly shaped, cylindrical to global horny masses, whose size and number are proportional to the […].
The comedolytic effect was determined by the decrease in the number of comedones in comparison with the control ear.

[3] = test system: male Sprague-Dawley CD rats; assay: Comparative oral toxicity in rats (inhibition of growth and lethality over two weeks); conditions: for Proportion of survivors, Day 6 / Proportion of survivors, Day 11: 25 μmole/day in corn oil with 4% chloroform; for Average weight, Day 6 / Average weight, Day 11: 25 μmole/day, initial weight 95-110 g; for Average weight, Day 6: Day 6, mean with standard deviation; for Average weight, Day 11: Day 11, mean with standard deviation
Protocol: 2. Comparative toxicity of all-E-N-(tetrazol-5-yl)-retinamide and 13-Z-N-(tetrazol-5-yl)-retinamide.
(a) Male Sprague-Dawley CD rats from Charles River (50-75 g) were randomized and weighed daily for one week before the start of the experiment. At the beginning of the toxicological screen the animals weighed 95-110 g.
(b) The vehicle for the test substances was corn oil containing 4% of chloroform. The dose was 25 μmole of test substance/day, in 0.5 ml of vehicle.

[4] = test system: keratinization of hamster tracheal epithelium (tracheal organ culture, vitamin A deficiency); assay: Reversal of keratinization in tracheal organ culture; type: cell-based; conditions: Mesocricetus auratus, 240 h, read-out: ED50 (molar dose effective in suppressing keratinization in one-half of the cultures)
Description: This keratinization is inhibited, after initiation by chemical compounds, through the use of high energy radiation, or after viral cell transformation, through the use of the novel compounds of the formula (I). The method is described in Cancer Res. 36 (1976), 964-972, Nature 250 (1974), 64-66 and Nature 253 (1975), 47-50.
This assay measures the intrinsic ability of the novel compounds to control epithelial cell differentiation. The significant predictive value of this screening procedure for the potential use of a novel retinoid in the prevention of epithelial tissue tumors is generally accepted. At the same time it is known that any in vitro test system has disadvantages for the prediction of in vivo activity. Apart from these fundamental limitations, the tracheal organ culture assay is one of the most valuable procedures for evaluating the biological activity of a novel retinoid.
The assay procedure determines the ability of the two compounds to reverse keratinization in a defined in vitro system. Tracheas from hamsters in a very early stage of vitamin A deficiency were placed in organ culture. At that time, the animals were 29-30 days old (having been weaned at 21 days) and were still gaining some weight. Their average weight was 47-52 g. Their tracheal epithelium was generally low columnar or cuboidal, with only occasional patches of squamous metaplasia. Each trachea was opened from the larynx to the carina along the membranous dorsal wall and placed in culture in a serum-free medium (CMRL-1066 supplemented with crystalline bovine insulin, 1.0 μg/ml; hydrocortisone hemisuccinate, 0.1 μg/ml; glutamine, 2 mM; penicillin, 100 units/ml; and streptomycin, 100 μg/ml). The cultures were gassed with a mixture of 50% of oxygen, 45% of nitrogen and 5% of carbon dioxide. The culture dishes were rocked through 35.5-36.0 degrees to contact the tracheas with both gas and medium. All tracheas were maintained in medium containing no retinoid for the first 3 days. At the end of the 3 days, some tracheas were harvested. Almost all of these tracheas had significant squamous metaplasia. […]

the organism = conditions: in vivo; cited from earlier work
[5] = hamster tracheal organ culture, serum-free medium, 10 days, extrapolated from dose-response curves

| SMILES | liver retinoid concentration and organ damage (liver) | Rating erythema [1] | Rating scaling [1] | mean erythema [1] | mean scaling [1] | % comedolytic activity ([2]; 0.1% concentration) [%] | Proportion of survivors, Day 6 [3] | Proportion of survivors, Day 11 [3] | Average weight, Day 6 [3] | Average weight, Day 11 [3] | IC50 [4, 5] [nM] | toxic effects (the organism) | % comedolytic activity ([2]; 0.05% concentration) [%] | IC50 [4] [nM] | % comedolytic activity ([2]; 0.025% concentration) [%] |
| --- | --- | --- | --- | --- | --- | --- | --- | --- | --- | --- | --- | --- | --- | --- | --- |
| CC(=O)OC/C=C(C)/C=C/C=C(C)/C=C/C1=C(C)CCCC1(C)C [retinyl acetate] | intolerably high retinoid concentration in the liver leads to severe and irreversible damage to the organ | – | – | – | – | – | – | – | – | – | – | – | – | – | – |
| CC1=C(/C=C/C(C)=C/C=C/C(C)=C\C(=O)O)C(C)(C)CCC1 [13-Z-retinoic acid, reference compound] | – | severe | severe | 3.0 | 3.0 | – | – | – | – | – | – | – | – | – | – |
| CC1=C(/C=C/C(C)=C/C=C/C(C)=C/CO)C(C)(C)CCC1 [retinol] | intolerably high retinoid concentration in the liver leads to severe and irreversible damage to the organ | – | – | – | – | – | – | – | – | – | – | – | – | – | – |
| CC1=C(/C=C/C(C)=C/C=C/C(C)=C\C(=O)Nc2nnn[nH]2)C(C)(C)CCC1 [13-Z-N--(tetrazol-5-yl)-retinamide, 13-Z-N-(tetrazol-5-yl)-retinamide] | – | mild | none | 0.5 | 0.1 | 39.4 | 2/5 | 2/5 | 122 ± 18 | 140 ± 27 | 0.2 | – | – | – | – |
| CC1=C(/C=C/C(C)=C/C=C/C(C)=C/C(=O)O)C(C)(C)CCC1 [all-E-retinoic acid, reference compound] | – | moderate | moderate | 2.3 | 1.9 | – | 3/5 | 0/5 | 95 ± 2 | – | – | even slightly increased doses cause severe damage to the organism, for example with symptoms of hypervitaminosis-A | 58.3 | 0.03 | – |
| CC1=C(/C=C/C(C)=C/C=C/C(C)=C/C(=O)Nc2nnn[nH]2)C(C)(C)CCC1 [all-E-N--(tetrazol-5-yl)-retinamide, all-E-N-(tetrazol-5-yl)-retinamide] | – | mild | none | 0.8 | 0 | – | 3/4 | 3/4 | 124 ± 6 | 155 ± 4 | 0.1 | – | – | – | 35.1 |
